Source: patent US20240391862A1, “(1,4,5-TRISUBSTITUTED-1H-PYRAZOL-3-YL)OXY-2-ALKOXY ALKYL ACIDS AND THEIR DERIVATIVES, THEIR SALTS AND THEIR USE AS HERBICIDAL AGENTS” (Bayer AKtiengesellschaft, priority 2021, published 2024)

What was measured:
[1] = tested on: ZEAMX; assay: Post-emergence herbicidal effect and crop plant compatibility, greenhouse pot test; assay type: in vivo, Zea mays; conditions: one-leaf stage, rated visually after about 3 weeks vs untreated controls
In short: (§1)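 Greenhouse pot plants in sandy loam receive a one-leaf-stage spray at 20 to 320 g/ha. Activity is assessed visually around 3 weeks afterwards on a 0–100% scale, where 100% means the plants have died.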

[2] = tested on: ORYSA; assay: as above; assay type: in vivo, Oryza sativa; conditions: 20 g/ha, visual rating about 3 weeks after treatment, crop plant
Source text: • ALOMY: Alopecurus myosuroides SETVI: Setaria viridis • AVEFA: Avena fatua POLCO: Fallopia convolvulus • AMARE: Amaranthus retroflexus ECHCG: Echinochloa crus-galli • LOLRJ: Lolium rigidum STEME: Stellaria media • VERPE: Veronica persica MATIN: Tripleurospermum inodorum • DIGSA: Digitaria sanguinalis ABUTH: Abutylon threophrasti • TRZAS: Triticum aestivum VIOTR: Viola tricolor • BRSNW: Brassica napus ZEAMX: Zea mays • PHBPU: Ipomoea purpurea GLXMA: Glycine max • ORYSA: Oryza sativa HORMU: Hordeum murinum
Seeds of monocotyledonous and dicotyledonous weeds and crop plants are placed in sandy loam in plastic or organic planting pots, covered with soil and cultivated in a greenhouse under controlled growth conditions. 2 to 3 weeks after sowing, the trial plants are treated at the one-leaf stage. The compounds of the invention, formulated in the form of wettable powders (WP) or as emulsion concentrates (EC), are then sprayed onto the green parts of the plants as aqueous suspension or emulsion with addition of 0.5% additive at a water application rate of 600 l/ha (converted). After the test plants have been kept in the greenhouse under optimum growth conditions for about 3 weeks, the activity of the preparations is rated visually in comparison to untreated controls. For example, 100% activity=the plants have died, 0% activity=like control plants.
Tables 20a to 38c below show the effects/crop compatibilities of selected compounds of the general formula (I) on various harmful plants at an application rate corresponding to 20 to 320 g/ha, which were obtained by the trial procedure specified above.

[3] = tested on: ABUTH; assay: Post-emergence herbicidal effect, greenhouse pot test; assay type: in vivo, Abutilon theophrasti; conditions: visual rating about 3 weeks after treatment
In short: as §1

[4] = tested on: ALOMY; assay: as above; assay type: in vivo, Alopecurus myosuroides; conditions: 320 g/ha, visual rating about 3 weeks after treatment
In short: as §1

[5] = tested on: AMARE; assay: as above; assay type: in vivo, Amaranthus retroflexus; conditions: visual rating about 3 weeks after treatment
In short: as §1

[6] = tested on: AVEFA; assay: as above; assay type: in vivo, Avena fatua; conditions: 320 g/ha, visual rating about 3 weeks after treatment
In short: as §1

[7] = tested on: DIGSA; assay: as above; assay type: in vivo, Digitaria sanguinalis; conditions: 320 g/ha, visual rating about 3 weeks after treatment
In short: as §1

[8] = tested on: ECHCG; assay: as above; assay type: in vivo, Echinochloa crus-galli
In short: as §1

[9] = tested on: MATIN; assay: as above; assay type: in vivo, Tripleurospermum inodorum
In short: as §1

[10] = tested on: PHBPU; assay: as above; assay type: in vivo, Ipomoea purpurea
In short: as §1

[11] = tested on: POLCO; assay: as above; assay type: in vivo, Fallopia convolvulus; conditions: 320 g/ha
In short: as §1

[12] = tested on: SETVI; assay: as above; assay type: in vivo, Setaria viridis
In short: as §1

[13] = tested on: VERPE; assay: as above; assay type: in vivo, Veronica persica
In short: as §1

[14] = tested on: VIOTR; assay: as above; assay type: in vivo, Viola tricolor
In short: as §1

[15] = tested on: various unwanted plants; assay: Pre-emergence effect against various unwanted plants (PE): comparative test of I-01 with compounds from WO2020/245044 (Tables 40a, 40b) and summary statements; assay type: in vivo; conditions: comparative test
Source text: Seeds of monocotyledonous and dicotyledonous weed plants and crop plants are placed in plastic or organic planting pots and covered with soil. The compounds of the invention, formulated in the form of wettable powders (WP) or as emulsion concentrates (EC), are then applied to the surface of the covering soil as aqueous suspension or emulsion with addition of 0.5% additive at a water application rate equivalent to 600 l/ha. After the treatment, the pots are placed in a greenhouse and kept under good growth conditions for the trial plants. After about 3 weeks, the effect of the preparations is scored visually in comparison with untreated controls as percentages. For example, 100% activity=the plants have died, 0% activity=like control plants. Tables 40a and 40b below show the effects of the inventive compound (I-01) with structurally similar compounds (from WO2020/245044) on various harmful plants at an application rate corresponding to 320 g/ha or less, which have been obtained by the trial procedure specified hereinafter. The inventive compound (I-01) differs here by variance of a significant structural feature from the structurally similar compound with regard to the R^2 radical. Seeds of monocotyledonous and dicotyledonous weed plants and crop plants are placed in plastic or organic planting pots and covered with soil. The compounds of the invention, formulated in the form of wettable powders (WP) or as emulsion concentrates (EC), are then applied to the surface of the covering soil as aqueous suspension or emulsion with addition of 0.5% additive at a water application rate equivalent to 600 l/ha. After the treatment, the pots are placed in a greenhouse and kept under good growth conditions for the trial plants. After about 3 weeks, the effect of the preparations is scored visually in comparison with untreated controls as percentages. For example, 100% activity=the plants have died, 0% activity=like control plants. Effects/crop compatibilities of selected compounds (Table 39) on various harmful plants at an application rate corresponding to 80 to 320 g/ha that have been obtained by the trial procedure specified hereinabove are shown in Tables 40a and 40b below.

[16] = tested on: various unwanted plants; assay: Post-emergence effect against various unwanted plants (PO): comparative test of I-01 with compounds from WO2020/245044 (Tables 41a, 41b) and summary statements; assay type: in vivo; conditions: comparative test
Description: Seeds of monocotyledonous and dicotyledonous weeds and crop plants are placed in sandy loam in plastic or organic planting pots, covered with soil and cultivated in a greenhouse under controlled growth conditions. 2 to 3 weeks after sowing, the trial plants are treated at the one-leaf stage. The compounds of the invention, formulated in the form of wettable powders (WP) or as emulsion concentrates (EC), are then sprayed onto the green parts of the plants as aqueous suspension or emulsion with addition of 0.5% additive at a water application rate of 600 l/ha (converted). After the test plants have been kept in the greenhouse under optimum growth conditions for about 3 weeks, the activity of the preparations is rated visually in comparison to untreated controls. For example, 100% activity=the plants have died, 0% activity=like control plants. […] Tables 41a and 41b below show the effects of the inventive compound (I-01) with structurally similar compounds (WO2020/245044) on various harmful plants at an application rate corresponding to 320 g/ha or less, which have been obtained by the trial procedure specified hereinafter. The inventive compound (I-01) differs here by variance of a significant structural feature from the structurally similar compound with regard to the R^2 radical. Seeds of monocotyledonous and dicotyledonous weeds and crop plants are placed in sandy loam in plastic or organic planting pots, covered with soil and cultivated in a greenhouse under controlled growth conditions. 2 to 3 weeks after sowing, the trial plants are treated at the one-leaf stage. The compounds of the invention, formulated in the form of wettable powders (WP) or as emulsion concentrates (EC), are then sprayed onto the green parts of the plants as aqueous suspension or emulsion with addition of 0.5% additive at a water application rate of 600 l/ha (converted). After the test plants have been kept in the greenhouse under optimum growth conditions for about 3 weeks, the activity of the preparations is rated visually in comparison to untreated controls. For example, 100% activity=the plants have died, 0% activity=like control plants. Effects/crop compatibilities of selected compounds (see Table 39) on various harmful plants at an application rate corresponding to 80 to 320 g/ha that have been obtained by the trial procedure specified hereinafter are shown in Tables 41a and 41b below.

COC(=O)CCOC(=O)C(OC)Oc1nn(-c2ccccc2F)c(-c2ccc(F)nc2)c1Br (single isomer, unassigned) [Example I-20]
Post-emergence effect at 20 g/ha against ZEAMX in % ([1]; 20 g/ha): 0% | Post-emergence effect at 80 g/ha against ZEAMX in % ([1]; 80 g/ha): 20% | Post-emergence effect against ORYSA [2]: 0% | Post-emergence effect against ABUTH ([3]; 80 g/ha): 80% | Post-emergence effect against ABUTH ([3]; 320 g/ha): 90% | Post-emergence effect against ALOMY [4]: 80% | Post-emergence effect against AMARE ([5]; 80 g/ha): 80% | Post-emergence effect against AMARE ([5]; 320 g/ha): 90% | Post-emergence effect against AVEFA [6]: 90% | Post-emergence effect against DIGSA [7]: 90% | Post-emergence effect against ECHCG in % ([8]; 80 g/ha): 80% | Post-emergence effect against ECHCG in % ([8]; 320 g/ha): 90% | Post-emergence effect against MATIN in % ([9]; 80 g/ha): 80% | Post-emergence effect against MATIN in % ([9]; 320 g/ha): 90% | Post-emergence effect against PHBPU in % ([10]; 80 g/ha): 80% | Post-emergence effect against PHBPU in % ([10]; 320 g/ha): 90% | Post-emergence effect against POLCO in % [11]: 80% | Post-emergence effect against SETVI in % ([12]; 80 g/ha): 80% | Post-emergence effect against SETVI in % ([12]; 320 g/ha): 80% | Post-emergence effect against VERPE in % ([13]; 80 g/ha): 80% | Post-emergence effect against VERPE in % ([13]; 320 g/ha): 90% | Post-emergence effect against VIOTR in % ([14]; 80 g/ha): 80% | Post-emergence effect against VIOTR in % ([14]; 320 g/ha): 90%

CCCC(Oc1nn(-c2ccccc2F)c(-c2ccc(F)nc2)c1Br)C(=O)OCC (stereo not shown) [A]
Pre-emergence effect, Effect %, ALOMY ([15]; 320 g/ha): 60% | Pre-emergence effect, Effect %, ECHCG ([15]; 80 g/ha): 0% | Pre-emergence effect, Effect %, ECHCG ([15]; 320 g/ha): 80% | Pre-emergence effect, Effect %, LOLRI ([15]; 80 g/ha): 20% | Pre-emergence effect, Effect %, LOLRI ([15]; 320 g/ha): 30% | Pre-emergence effect, Effect %, MATIN ([15]; 80 g/ha): 0% | Pre-emergence effect, Effect %, MATIN ([15]; 320 g/ha): 30% | Pre-emergence effect, Effect %, POLCO ([15]; 80 g/ha): 20% | Pre-emergence effect, Effect %, SETVI ([15]; 320 g/ha): 70% | Post-emergence effect, Effect %, ALOMY ([16]; 80 g/ha): 0% | Post-emergence effect, Effect %, ALOMY ([16]; 320 g/ha): 50% | Post-emergence effect, Effect %, AVEFA ([16]; 80 g/ha): 30% | Post-emergence effect, Effect %, AVEFA ([16]; 320 g/ha): 40% | Post-emergence effect, Effect %, ECHCG ([16]; 80 g/ha): 50% | Post-emergence effect, Effect %, ECHCG ([16]; 320 g/ha): 80% | Post-emergence effect, Effect %, LOLRI ([16]; 80 g/ha): 0% | Post-emergence effect, Effect %, LOLRI ([16]; 320 g/ha): 20% | Post-emergence effect, Effect %, SETVI ([16]; 80 g/ha): 20% | Post-emergence effect, Effect %, SETVI ([16]; 320 g/ha): 70%

CCOC(=O)COc1nn(-c2ccccc2F)c(-c2ccc(F)nc2)c1Br [B]
Post-emergence effect, Effect %, ALOMY ([16]; 80 g/ha): 70% | Post-emergence effect, Effect %, AVEFA ([16]; 80 g/ha): 80% | Post-emergence effect, Effect %, ECHCG ([16]; 80 g/ha): 50% | Post-emergence effect, Effect %, LOLRI ([16]; 80 g/ha): 30% | Post-emergence effect, Effect %, SETVI ([16]; 80 g/ha): 70%

CCOC(=O)C(F)Oc1nn(-c2ccccc2F)c(-c2ccc(F)nc2)c1Br (stereo not shown) [C]
Pre-emergence effect, Effect %, ALOMY ([15]; 320 g/ha): 80% | Pre-emergence effect, Effect %, ECHCG ([15]; 80 g/ha): 0% | Pre-emergence effect, Effect %, ECHCG ([15]; 320 g/ha): 70% | Pre-emergence effect, Effect %, LOLRI ([15]; 80 g/ha): 10% | Pre-emergence effect, Effect %, LOLRI ([15]; 320 g/ha): 90% | Pre-emergence effect, Effect %, MATIN ([15]; 80 g/ha): 70% | Pre-emergence effect, Effect %, MATIN ([15]; 320 g/ha): 80% | Pre-emergence effect, Effect %, POLCO ([15]; 80 g/ha): 50% | Pre-emergence effect, Effect %, SETVI ([15]; 320 g/ha): 70% | Post-emergence effect, Effect %, ALOMY ([16]; 80 g/ha): 50% | Post-emergence effect, Effect %, AVEFA ([16]; 80 g/ha): 60% | Post-emergence effect, Effect %, ECHCG ([16]; 80 g/ha): 80% | Post-emergence effect, Effect %, LOLRI ([16]; 80 g/ha): 10% | Post-emergence effect, Effect %, SETVI ([16]; 80 g/ha): 70%
